Structures are written as SMILES.

In the test the target is T1, EGFR TMLRCS (Homo sapiens, UniProt P00533, C797S/L858R/T790M).
T1 construct: host or cells: BaF3-TMLRCS (Ba/F3 cells, kept under puromycin selection)
T1 sequence (P00533 25-1210 T790M/C797S/L858R): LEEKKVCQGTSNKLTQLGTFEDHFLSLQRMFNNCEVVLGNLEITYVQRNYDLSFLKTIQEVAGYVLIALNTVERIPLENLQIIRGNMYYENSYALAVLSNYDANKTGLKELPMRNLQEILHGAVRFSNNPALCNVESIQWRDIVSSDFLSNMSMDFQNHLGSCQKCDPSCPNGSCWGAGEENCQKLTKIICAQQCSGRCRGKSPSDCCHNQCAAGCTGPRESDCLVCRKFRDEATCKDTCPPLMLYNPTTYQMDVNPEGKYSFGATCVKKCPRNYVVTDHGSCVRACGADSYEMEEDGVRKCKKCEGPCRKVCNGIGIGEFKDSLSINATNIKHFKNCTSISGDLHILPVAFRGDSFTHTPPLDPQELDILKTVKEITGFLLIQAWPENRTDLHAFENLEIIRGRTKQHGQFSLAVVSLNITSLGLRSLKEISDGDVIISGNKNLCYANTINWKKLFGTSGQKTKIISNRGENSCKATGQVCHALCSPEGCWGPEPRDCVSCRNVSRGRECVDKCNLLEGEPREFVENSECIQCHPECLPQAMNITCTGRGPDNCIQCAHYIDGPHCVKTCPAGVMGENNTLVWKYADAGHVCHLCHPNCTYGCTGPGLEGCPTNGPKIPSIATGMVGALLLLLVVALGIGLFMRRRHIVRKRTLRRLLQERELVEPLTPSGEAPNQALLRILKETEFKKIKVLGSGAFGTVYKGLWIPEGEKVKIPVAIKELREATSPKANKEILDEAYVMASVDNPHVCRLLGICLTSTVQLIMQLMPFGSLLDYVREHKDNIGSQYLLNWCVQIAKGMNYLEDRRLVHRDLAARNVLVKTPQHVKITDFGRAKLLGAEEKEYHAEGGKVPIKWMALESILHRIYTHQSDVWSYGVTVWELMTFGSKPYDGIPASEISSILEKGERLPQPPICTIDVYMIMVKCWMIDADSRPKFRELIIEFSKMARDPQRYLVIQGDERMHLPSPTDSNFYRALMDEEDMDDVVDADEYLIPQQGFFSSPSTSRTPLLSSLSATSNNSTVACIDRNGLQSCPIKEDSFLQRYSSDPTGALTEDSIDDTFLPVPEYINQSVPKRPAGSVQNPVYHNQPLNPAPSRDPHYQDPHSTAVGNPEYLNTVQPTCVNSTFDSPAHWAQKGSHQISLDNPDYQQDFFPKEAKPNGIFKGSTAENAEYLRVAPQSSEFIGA
The test is described as follows: HTRF Phospho EGFR TMLRCS Assay (Cellular). Conditions: BaF3-TMLRCS cell line, 4 hours incubation, Phospho-EGFR HTRF readout. The format is cell-based. The method, then:
HTRF Phospho EGFR TMLRCS Assay (Cellular)
BaF3-TMLRCS cell line were obtained from Crownbio (San Diego, CA, USA). Cells were maintained at 37° C., 5% CO2 in RPMI ATCC (Gibco 31870)+2 mM Glutamine+0.5 μg/ml Puromycin supplemented with 10% fetal bovine serum (FBS) (Gibco).
Cells are transferred as above to Greiner Bio-One, Nr. 784-08 micro-titerplate at 20000 cells/well in 12.5 μl of growth medium/well after the plates had been pre-filled with 12.5 nl of DMSO solutions of the to be tested compounds (in dose response) or DMSO only. After spinning the plates at 300×g for 30 seconds the cells were incubated for 4 hours at 37 C, 5% CO2, 95% humidity. The cells were lysed by adding to the compound mix 4 μl/well of the supplemented lysis buffer (Cis-bio, Phospho-EGFR HTRF kit, 64EG1PEH), followed by incubation for 30 min at room temperature with shaking (400 rpm). The plates were then frozen and stored overnight at −80 C. On the next day and after thawing the plates, 4 μl of a mixture of anti-Phospho-EGFR Cryptate and of anti-Phospho-EGFR-d2 antibody solutions prepared in the supplied detection buffer was added to each well. The lidded plates were then incubated for 4 h at room temperature before reading the fluorescence emission at 616 and 665 nm using an Envision reader (Perkin Elmer). Data was analyzed in similar fashion as above using the normalized ratio of the 665 to 616 signals multiplied by 10000.
On the technique in general: Time-resolved FRET reads energy transfer from a long-lived donor to a nearby acceptor.
Turning to `CCc1c(-c2ccc(N3CCOCC3)cc2)cc(Cl)c2cn(C(C(=O)Nc3nccs3)c3ncn4c3C[C@@H](F)C4)nc12` (stereo partly drawn) [Example 125, 2-(4-Chloro-7-ethyl-6-(4-morpholinophenyl)-2H-indazol-2-yl)-2-((R)-6-fluoro-6,7-dihydro-5H-pyrrolo[1,2-c]imidazol-1-yl)-N-(thiazol-2-yl)acetamide], half-maximal inhibition (IC50) required 11 nM.

As for `O=C(Nc1nccs1)C(c1ncn2c1CCC2)n1cc2c(Cl)cc(-c3ccc(N4CCOCC4)cc3)c(Br)c2n1` (stereo not drawn) [Example 134, 2-(7-Bromo-4-chloro-6-(4-morpholinophenyl)-2H-indazol-2-yl)-2-(6,7-dihydro-5H-pyrrolo[1,2-c]imidazol-1-yl)-N-(thiazol-2-yl)acetamide], the concentration for half-maximal inhibition (IC50) worked out at 32 nM.

On to `CN(CCN1CCC(CO)CC1)c1ccc(-c2cc(Cl)c3cn(C(C(=O)Nc4nccs4)c4ncn5c4C[C@@H](F)C5)nc3c2Cl)cc1` (stereo partly drawn) [Example 79], for which 7 nM corresponded to half-maximal inhibition (IC50).

Compound `O=C(Nc1nccs1)C(c1ncn2c1C[C@@H](F)C2)n1cc2c(Cl)cc(-c3ccc(C4CC(CN5CCC(O)CC5)C4)cc3)c(Cl)c2n1` (mixture of isomers) [Example 76, rac-2-(4,7-Dichloro-6-(4-(34(4-hydroxypiperidin-1-yl)methyl)cyclobutyl)phenyl)-2H-indazol-2-yl)-2-((R)-6-fluoro-6,7-dihydro-5H-pyrrolo[1,2-c]imidazol-1-yl)-N-(thiazol-2-yl)acetamide] showed an IC50 of 11 nM.

In turn, `CN1CCC(Oc2ccc(-c3cc(Cl)c4cn(C(C(=O)Nc5nccs5)c5ncn6c5C[C@@H](F)C6)nc4c3Cl)cc2)CC1` (stereo partly drawn) [Example 85, 2-(4,7-Dichloro-6-(4-((l-methylpiperidin-4-yl)oxy)phenyl)-2H-indazol-2-yl)-2-((R)-6-fluoro-6,7-dihydro-5H-pyrrolo[1,2-c]imidazol-1-yl)-N-(thiazol-2-yl)acetamide] had a half-inhibitory concentration (IC50) of 4 nM.

`Cc1cc(-c2ccc(N3CCOCC3)cc2)c(Cl)c2nn(C(C(=O)Nc3nccs3)c3ncn4c3CCC4)cc12` (stereo not drawn) [Example 126, 2-(7-Chloro-4-methyl-6-(4-morpholinophenyl)-2H-indazol-2-yl)-2-(6,7-dihydro-5H-pyrrolo[1,2-c]imidazol-1-yl)-N-(thiazol-2-yl)acetamide] showed an IC50 of 9 nM.

Compound `Cc1cc(-c2ccc(OCCN3CCC(CO)CC3)cc2)c(Cl)c2nn(C(C(=O)Nc3nccs3)c3ncn4c3C[C@@H](F)C4)cc12` (mixture of isomers) [Example 132, rac-2-(7-Chloro-6-(4-(2-(4-(hydroxymethyl)piperidin-1-yl)ethoxy)phenyl)-4-methyl-2H-indazol-2-yl)-2-((R)-6-fluoro-6,7-dihydro-5H-pyrrolo[1,2-c]imidazol-1-yl)-N-(thiazol-2-yl)acetamide] returned an IC50 of 7 nM.

`CN(Cc1ccc(-c2cc(Cl)c3cn(C(C(=O)Nc4nccs4)c4ncn5c4C[C@@H](F)C5)nc3c2Cl)cc1)C1CCCC(O)C1` (mixture of isomers) [Example 95, rac-2-(4,7-Dichloro-6-(4-(((3-hydroxycyclohexyl)(methyl)amino)methyl)phenyl)-2H-indazol-2-yl)-2-((R)-6-fluoro-6,7-dihydro-5H-pyrrolo[1,2-c]imidazol-1-yl)-N-(thiazolyl)acetamide]: inhibition was half-maximal at 6 nM (IC50).

Turning to `CCN1CCC(c2ccc(-c3cc(Cl)c4cn(C(C(=O)Nc5nccs5)c5ncn6c5C[C@@H](F)C6)nc4c3)cc2)CC1` (mixture of isomers) [Example 117, rac-2-(4-Chloro-6-(4-(1-ethylpiperidin-4-yl)phenyl)-2H-indazol-2-yl)-2-((R)-6-fluoro-6,7-dihydro-5H-pyrrolo[1,2-c]imidazol-1-yl)-N-(thiazol-2-yl)acetamide], 9 nM corresponded to half-maximal inhibition (IC50).

`O=C(Nc1nccs1)C(c1ncn2c1C[C@@H](F)C2)n1cc2c(Cl)cc(-c3ccc(CN4CCC5(CC4)CC(O)C5)cc3)c(Cl)c2n1` (mixture of isomers) [Example 91, rac-2-(4,7-Dichloro-6-(4-((2-hydroxy-7-azaspiro[3.5]nonan-7-yl)methyl)phenyl)-2H-indazol-2-yl)-2-((R)-6-fluoro-6,7-dihydro-5H-pyrrolo[1,2-c]imidazol-1-yl)-N-(thiazol-2-yl)acetamide] displayed a half-maximal inhibitory concentration (IC50) of 8 nM.

Turning to `O=C(Nc1nccs1)C(c1ncn2c1C[C@@H](F)C2)n1cc2c(Cl)cc(-c3ccc(CCN4CCC(O)C4)cc3)c(Cl)c2n1` (mixture of isomers) [Example 70, rac-2-(4,7-Dichloro-6-(4-(2-(3-hydroxypyrrolidin-1-yl)ethyl)phenyl)-2H-indazol-2-yl) ((R)-6-fluoro-6,7-dihydro-5H-pyrrolo[1,2-c]imidazol-1-yl)-N-(thiazol-2-yl)acetamide], the IC50 was 8 nM.

`CC(O)CN1CCN(c2ccc(-c3cc(Cl)c4cn(C(C(=O)Nc5nccs5)c5ncn6c5C[C@@H](F)C6)nc4c3Cl)cc2)CC1` (mixture of isomers) [Example 71, rac-2-(4,7-Dichloro-6-(4-(4-(2-hydroxypropyl)piperazin-1-yl)phenyl)-2H-indazol-2-yl)-2-((R)-6-fluoro-6,7-dihydro-5H-pyrrolo[1,2-c]imidazol-1-yl)-N-(thiazol-2-yl)acetamide] came in with an IC50 of 8 nM.

For `O=C(Nc1nccs1)C(c1ncn2c1C[C@@H](F)C2)n1cc2c(Cl)cc(-c3ccc(OCCN4CCCC4)cc3)c(Cl)c2n1` (stereo partly drawn) [Example 42, 2-(4,7-Dichloro-6-(4-(2-(pyrrolidin-1-yl)ethoxy)phenyl)-2H-indazol-2-yl)-2-((R)-6-fluoro-6,7-dihydro-5H-pyrrolo[1,2-c]imidazol-1-yl)-N-(thiazol-2-yl)acetamide], 12 nM corresponded to half-maximal inhibition (IC50).

With `CC(O)C1CCN(CCc2ccc(-c3cc(Cl)c4cn(C(C(=O)Nc5nccs5)c5ncn6c5C[C@@H](F)C6)nc4c3Cl)cc2)CC1` (mixture of isomers) [Example 60, rac-2-(4,7-Dichloro-6-(4-(2-(4-(1-hydroxyethyl)piperidin-1-yl)ethyl)phenyl)-2H-indazol-2-yl)-2-((R)-6-fluoro-6,7-dihydro-5H-pyrrolo[1,2-c]imidazol-1-yl)-N-(thiazol-2-yl)acetamide], 9 nM corresponded to half-maximal inhibition (IC50).

`O=C(Nc1nccs1)C(c1ncn2c1C[C@@H](F)C2)n1cc2c(Cl)cc(-c3ccc(C45CC(CN6CCC(CO)CC6)(C4)C5)cc3)c(Cl)c2n1` (mixture of isomers) [Example 50, rac-2-(4,7-Dichloro-6-(4-(3-((4-(hydroxymethyl)piperidin-1-yl)methyl)bicyclo[1.1.1]pentan-1-yl)phenyl)-2H-indazol-2-yl)-2-((R)-6-fluoro-6,7-dihydro-5H-pyrrolo[1,2-c]imidazol-1-yl)-N-(thiazol-2-yl)acetamide] came in with an IC50 of 12 nM.

As for `O=C(Nc1nccs1)C(c1ncn2c1C[C@@H](F)C2)n1cc2c(Cl)cc(-c3ccc(N4CCN(C5CC(O)C5)CC4)cc3)c(Cl)c2n1` (mixture of isomers) [Example 66, rac-2-(4,7-Dichloro-6-(4-(4-(3-hydroxycyclobutyl)piperazin-1-yl)phenyl)-2H-indazol-2-yl)-2-((R)-6-fluoro-6,7-dihydro-5H-pyrrolo[1,2-c]imidazol-1-yl)-N-(thiazol-2-yl)acetamide], the IC50 was 2 nM.

Compound `Cc1cc(-c2ccc(N3CCOCC3)cc2)c(Cl)c2nn(C(C(=O)Nc3nccs3)c3ncn4c3C[C@@H](F)C4)cc12` (stereo partly drawn) [Example 128, 2-(7-Chloro-4-methyl-6-(4-morpholinophenyl)-2H-indazol-2-yl)-2-((R)-6-fluoro-6,7-dihydro-5H-pyrrolo[1,2-c]imidazol-1-yl)-N-(thiazol-2-yl)acetamide] registered an IC50 of 5 nM.

The compound `O=C(Nc1nccs1)C(c1ncn2c1C[C@@H](F)C2)n1cc2c(Cl)cc(-c3cnc(N4CCOCC4)nc3)c(Cl)c2n1` (stereo partly drawn) [Example 27, 2-(4,7-Dichloro-6-(2-morpholinopyrimidin-5-yl)-2H-indazol-2-yl)-2-((R)-6-fluoro-6,7-dihydro-5H-pyrrolo[1,2-c]imidazol-1-yl)-N-(thiazol-2-yl)acetamide] registered an IC50 of 5 nM.

`O=C(Nc1nccs1)C(c1ncn2c1C[C@@H](F)C2)n1cc2c(Cl)cc(-c3ccc(OCCN4CC5(CC(O)C5)C4)cc3)c(Cl)c2n1` (stereo partly drawn) [Example 88, 2-(4,7-Dichloro-6-(4-(2-(6-hydroxy-2-azaspiro[3.3]heptan-2-yl)ethoxy)phenyl)-2H-indazol-2-yl)-2-((R)-6-fluoro-6,7-dihydro-5H-pyrrolo[1,2-c]imidazol-1-yl)-N-(thiazol-2-yl)acetamide]: the IC50 was found to be 7 nM.

Compound `O=C(Nc1nccs1)C(c1ncn2c1C[C@@H](F)C2)n1cc2c(Cl)cc(-c3ccc(C4CN(CCO)C4)cc3)c(Cl)c2n1` (stereo partly drawn) [Example 84, 2-(4,7-Dichloro-6-(4-(1-(2-hydroxyethyl)azetidin-3-yl)phenyl)-2H-indazol-2-yl)-2-((R)-6-fluoro-6,7-dihydro-5H-pyrrolo[1,2-c]imidazol-1-yl)-N-(thiazol-2-yl)acetamide] yielded an IC50 of 12 nM.

Regarding `CC(O)C1CN(CCc2ccc(-c3cc(Cl)c4cn(C(C(=O)Nc5nccs5)c5ncn6c5C[C@@H](F)C6)nc4c3Cl)cc2)C1` (mixture of isomers) [Example 100, rac-2-(4,7-Dichloro-6-(4-(2-(3-(1-hydroxyethyl)azetidin-1-yl)ethyl)phenyl)-2H-indazol-2-yl)-2-((R)-6-fluoro-6,7-dihydro-5H-pyrrolo[1,2-c]imidazol-1-yl)-N-(thiazol-2-yl)acetamide], the midpoint of inhibition, the IC50, lay at 12 nM.

By IC50 is commonly meant the concentration that inhibits the measured activity by half. Low values mean higher potency, high ones lower potency.

For the origin of these results see patent US12479849B2, “EGFR inhibitors for the treatment of cancer” (Hoffmann-La Roche Inc., priority 2019, dated 2025).
